Data on 18 molecules can be found in patent US10953027B2, “Active agents and methods of their use for the treatment of metabolic disorders and nonalcoholic fatty liver disease” (Flagship Pioneering Innovations V, Inc., priority 2018, dated 2021).

Common to all, as to format: in vitro ADME
Series [1] can be described thus: Assay 2. Stability in Simulated Intestinal Fluid (SIF). As to conditions: 1 μM, 37° C., SIF pH 6.7 with pancreatin. In a few lines: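 Degradation rate measured by LC/MS after acetonitrile quench of timed aliquots, starting at T0. Test compound 1 μM in simulated intestinal fluid (pH 6.7 phosphate buffer, FaSSIF powder, pancreatin), shaken at 37 °C.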
Series [2] can be described thus: Assay 3. Fecal Incubation Stability. The following applies: 1 or 10 μM, human fecal slurry, anaerobic.
Series [3] in a line: Assay 1. Stability in Simulated Gastric Fluid (SGF). The following applies: 1 μM, 37° C., SGF pH 1.6 with pepsin. In a few lines: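 Simulated gastric fluid, prepared fresh as NaCl buffer at pH 1.6 with 0.1 mg/mL pepsin and FaSSIF powder, received test compound to 1 μM final and was held at 37 °C. LC/MS of acetonitrile-quenched samples, taken immediately and then periodically, gave degradation rates.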

SMILES strings stand for the structures.

For `C[C@@H]1OC(O)[C@@H](OC(=O)CCc2c[nH]c3ccccc23)[C@H](OC(=O)CCc2c[nH]c3ccccc23)[C@@H]1OC(=O)CCc1c[nH]c2ccccc12` (stereo partly drawn) [Compound 95, (2S,3R,4R,5S)-6-hydroxy-4,5-bis({[3-(1H-indol-3-yl)propanoyl]oxy})-2-methyloxan-3-yl 3-(1H-indol-3-yl)propanoate], in series [1], the “Assay 2 (SIF) (% @ Remaining 4 hours)” value is “A (A: <25% of the tested compound remaining)”. Also, in series [2], the “Assay 3 (% Remaining at 24 h)” value is reported as “C (C: >75% of the tested compound remaining)”. In addition, the “Assay 1 (SGF) (% Remaining @ 1 hours)” value in series [3] is “C (C: >75% of the tested compound remaining)”.
With `CCC(=O)Oc1cc(OC(=O)CC)c2c(c1)O[C@H](c1ccc(OC(=O)CC)c(OC(=O)CC)c1)[C@H](OC(=O)CC)C2` [Compound 236, (2R,3R)-2-[3,4-bis(propanoyloxy)phenyl]-5,7-bis(propanoyloxy)-3,4-dihydro-2H-1-benzopyran-3-yl Propanoate], the “Assay 2 (SIF) (% @ Remaining 4 hours)” value in series [1] is on record as “A (A: <25% of the tested compound remaining)”. Also, in series [2], the “Assay 3 (% Remaining at 24 h)” value is listed as “A (A: <25% of the tested compound remaining)”. In series [3], the “Assay 1 (SGF) (% Remaining @ 1 hours)” value was “B (B: 25-75% of the tested compound remaining)”.
`CCC(=O)OC1O[C@H](C(=O)O)[C@@H](OC(=O)CC)[C@H](OC(=O)CC)[C@H]1OC(=O)CC` (stereo in doubt) [Compound 80, (2S,3S,4S,5R,6S)-3,4,5,6-tetrakis(propanoyloxy)oxane-2-carboxylic Acid]: the “Assay 2 (SIF) (% @ Remaining 4 hours)” value in series [1] was “A (A: <25% of the tested compound remaining)”. In series [2], the “Assay 3 (% Remaining at 24 h)” value is “A (A: <25% of the tested compound remaining)”. In series [3], the “Assay 1 (SGF) (% Remaining @ 1 hours)” value is “C (C: >75% of the tested compound remaining)”.
On to `CCC(=O)Oc1ccc(-c2cc(=O)c3c(O)cc(OC(=O)CC)cc3o2)cc1` [Compound 199, 5-hydroxy-4-oxo-2-[4-(propanoyloxy)phenyl]-4H-chromen-7-yl Propanoate], for which the “Assay 2 (SIF) (% @ Remaining 4 hours)” value in series [1] is “A (A: <25% of the tested compound remaining)”. Further, in series [2], the “Assay 3 (% Remaining at 24 h)” value is given as “A (A: <25% of the tested compound remaining)”. For the same molecule, in series [3], the “Assay 1 (SGF) (% Remaining @ 1 hours)” value is on record as “B (B: 25-75% of the tested compound remaining)”.
With `O=C(CCc1c[nH]c2ccccc12)Oc1ccc(/C=C/c2cc(OC(=O)CCc3c[nH]c4ccccc34)cc(OC(=O)CCc3c[nH]c4ccccc34)c2)cc1` [Compound 259, 4-[(1E)-2-[3,5-bis({[3-(1H-indol-3-yl)propanoyl]oxy})phenyl]ethenyl]phenyl 3-(1H-indol-3-yl)propanoate], the “Assay 2 (SIF) (% @ Remaining 4 hours)” value in series [1] is listed as “C (C: >75% of the tested compound remaining)”. Further, in series [2], the “Assay 3 (% Remaining at 24 h)” value is given as “B (B: 25-75% of the tested compound remaining)”. Moreover, in series [3], the “Assay 1 (SGF) (% Remaining @ 1 hours)” value is listed as “C (C: >75% of the tested compound remaining)”.
On to `CCC(=O)O[C@@H]1[C@@H](OC(=O)CC)[C@@H](OC)OC[C@H]1OC(=O)CC` [Compound 105, (2S,3R,4S,5R)-2-methoxy-4,5-bis(propanoyloxy)oxan-3-yl Propanoate], for which, in series [1], the “Assay 2 (SIF) (% @ Remaining 4 hours)” value was “B (B: 25-75% of the tested compound remaining)”. Further, the “Assay 3 (% Remaining at 24 h)” value in series [2] is on record as “A (A: <25% of the tested compound remaining)”. Also, in series [3], the “Assay 1 (SGF) (% Remaining @ 1 hours)” value is listed as “C (C: >75% of the tested compound remaining)”.
For `CCCC(=O)Oc1ccc(-c2cc(=O)c3c(OC(=O)CCC)cc(OC(=O)CCC)cc3o2)cc1` [Compound 201, 5-(butanoyloxy)-2-[4-(butanoyloxy)phenyl]-4-oxo-4H-chromen-7-yl Butanoate], in that order: “A (A: <25% of the tested compound remaining)”, “A (A: <25% of the tested compound remaining)” and “B (B: 25-75% of the tested compound remaining)”.
As for `CCCC(=O)OC[C@H]1O[C@@H](OC(=O)CCc2c[nH]c3ccccc23)[C@H](OC(=O)CCC)[C@@H](OC(=O)CCC)[C@@H]1OC(=O)CCC` [Compound 118, [(2R,3R,4S,5R,6S)-3,4,5-tris(butanoyloxy)-6-{[3-(1H-indol-3-yl)propanoyl]oxy}oxan-2-yl]methyl Butanoate], the “Assay 2 (SIF) (% @ Remaining 4 hours)” value in series [1] is given as “A (A: <25% of the tested compound remaining)”. The “Assay 3 (% Remaining at 24 h)” value in series [2] is “A (A: <25% of the tested compound remaining)”. The “Assay 1 (SGF) (% Remaining @ 1 hours)” value in series [3] is reported as “B (B: 25-75% of the tested compound remaining)”.
`CCCC(=O)O[C@@H]1[C@@H](OC(=O)CCC)[C@@H](OC)OC[C@H]1OC(=O)CCC` [Compound 104, (2S,3R,4S,5R)-4,5-bis(butanoyloxy)-2-methoxyoxan-3-yl Butanoate]: the “Assay 2 (SIF) (% @ Remaining 4 hours)” value in series [1] is reported as “A (A: <25% of the tested compound remaining)”. Further, in series [2], the “Assay 3 (% Remaining at 24 h)” value was “A (A: <25% of the tested compound remaining)”. Also, in series [3], the “Assay 1 (SGF) (% Remaining @ 1 hours)” value was “B (B: 25-75% of the tested compound remaining)”.
Consider `CCC(=O)O[C@@H]1[C@H](OC)OC[C@@H](OC(=O)CC)[C@H]1OC(=O)CC` [Compound 101, (2R,3S,4R,5R)-2-methoxy-3,5-bis(propanoyloxy)oxan-4-yl Propanoate], for which, in series [1], the “Assay 2 (SIF) (% @ Remaining 4 hours)” value was “A (A: <25% of the tested compound remaining)”. Moreover, the “Assay 3 (% Remaining at 24 h)” value in series [2] is on record as “B (B: 25-75% of the tested compound remaining)”. The “Assay 1 (SGF) (% Remaining @ 1 hours)” value in series [3] was “C (C: >75% of the tested compound remaining)”.
In the same order, the values of `CCC(=O)O[C@H]1[C@@H](OC(=O)CCc2c[nH]c3ccccc23)OC[C@@H](OC(=O)CC)[C@H]1OC(=O)CC` [Compound 126, (2R,3R,4R,5R)-3,4,5-tris(propanoyloxy)oxan-2-yl 3-(1H-indol-3-yl)propanoate] are “A (A: <25% of the tested compound remaining)”, “A (A: <25% of the tested compound remaining)” and “C (C: >75% of the tested compound remaining)”.
In the same order, the values of `CCC(=O)O[C@@H]1[C@@H](OC(=O)CC)[C@H](OC(=O)/C=C/c2c[nH]c3ccccc23)OC[C@H]1OC(=O)CC` [Compound 123, (2S,3R,4S,5R)-3,4,5-tris(propanoyloxy)oxan-2-yl (2E)-3-(1H-indol-3-yl)prop-2-enoate] are “A (A: <25% of the tested compound remaining)”, “A (A: <25% of the tested compound remaining)” and “C (C: >75% of the tested compound remaining)”.
As to `CCC(=O)O[C@@H]1[C@@H](OC(=O)CC)[C@@H](OC(=O)CC)C(O)O[C@H]1C` (stereo partly drawn) [Compound 145, (3R,4R,5S,6S)-2-hydroxy-6-methyl-4,5-bis(propanoyloxy)oxan-3-yl Propanoate], the “Assay 2 (SIF) (% @ Remaining 4 hours)” value in series [1] was “A (A: <25% of the tested compound remaining)”. The “Assay 3 (% Remaining at 24 h)” value in series [2] is on record as “C (C: >75% of the tested compound remaining)”. In addition, the “Assay 1 (SGF) (% Remaining @ 1 hours)” value in series [3] is reported as “C (C: >75% of the tested compound remaining)”.
On to `CCC(=O)Oc1cc(C(=O)O)cc(OC(=O)CC)c1OC(=O)CC` [Compound 239, 3,4,5-tris(propanoyloxy)benzoic Acid], for which the “Assay 2 (SIF) (% @ Remaining 4 hours)” value in series [1] is “A (A: <25% of the tested compound remaining)”. Also, in series [2], the “Assay 3 (% Remaining at 24 h)” value was “A (A: <25% of the tested compound remaining)”. Also, in series [3], the “Assay 1 (SGF) (% Remaining @ 1 hours)” value is “C (C: >75% of the tested compound remaining)”.
In the case of `CCCC(=O)Oc1cc(OC(=O)CCC)c2c(c1)O[C@H](c1ccc(OC(=O)CCC)c(OC(=O)CCC)c1)[C@H](OC(=O)CCC)C2` [Compound 235, (2R,3R)-2-[3,4-bis(butanoyloxy)phenyl]-5,7-bis(butanoyloxy)-3,4-dihydro-2H-1-benzopyran-3-yl Butanoate], the “Assay 2 (SIF) (% @ Remaining 4 hours)” value in series [1] is “A (A: <25% of the tested compound remaining)”. In addition, in series [2], the “Assay 3 (% Remaining at 24 h)” value is on record as “A (A: <25% of the tested compound remaining)”. For the same molecule, the “Assay 1 (SGF) (% Remaining @ 1 hours)” value in series [3] is on record as “C (C: >75% of the tested compound remaining)”.
On to `CCC(=O)OC[C@H]1O[C@@H](OC(=O)Cc2c[nH]c3ccccc23)[C@H](OC(=O)CC)[C@@H](OC(=O)CC)[C@@H]1OC(=O)CC` [Compound 143, [(2R,3R,4S,5R,6S)-6-{[2-(1H-indol-3-yl)acetyl]oxy}-3,4,5-tris(propanoyloxy)oxan-2-yl]methyl Propanoate], for which the “Assay 2 (SIF) (% @ Remaining 4 hours)” value in series [1] is “A (A: <25% of the tested compound remaining)”. The “Assay 3 (% Remaining at 24 h)” value in series [2] is on record as “A (A: <25% of the tested compound remaining)”. For the same molecule, the “Assay 1 (SGF) (% Remaining @ 1 hours)” value in series [3] is “C (C: >75% of the tested compound remaining)”.
On to `C[C@@H]1CCO[C@](C)(C(=O)Oc2ccc(/C=C/c3cc(OC(=O)[C@@]4(C)OCC[C@@H](C)O4)cc(OC(=O)[C@@]4(C)OCC[C@@H](C)O4)c3)cc2)O1` [Compound 257, 3-[(2S,4R)-2,4-dimethyl-1,3-dioxane-2-carbonyloxy]-5-[(1E)-2-{4-[(2S,4R)-2,4-dimethyl-1,3-dioxane-2-carbonyloxy]phenyl}ethenyl]phenyl (2S,4R)-2,4-dimethyl-1,3-dioxane-2-carboxylate], for which the “Assay 2 (SIF) (% @ Remaining 4 hours)” value in series [1] is reported as “A (A: <25% of the tested compound remaining)”. Also, the “Assay 3 (% Remaining at 24 h)” value in series [2] was “A (A: <25% of the tested compound remaining)”. Moreover, the “Assay 1 (SGF) (% Remaining @ 1 hours)” value in series [3] is recorded as “C (C: >75% of the tested compound remaining)”.
As to `CCCC(=O)OC[C@H]1O[C@H](OC(=O)CCc2c[nH]c3ccccc23)[C@H](OC(=O)CCC)[C@@H](OC(=O)CCC)[C@@H]1OC(=O)CCC` [Compound 122, [(2R,3R,4S,5R,6R)-3,4,5-tris(butanoyloxy)-6-{[3-(1H-indol-3-yl)propanoyl]oxy}oxan-2-yl]methyl Butanoate], in series [1], the “Assay 2 (SIF) (% @ Remaining 4 hours)” value is reported as “B (B: 25-75% of the tested compound remaining)”. Moreover, the “Assay 3 (% Remaining at 24 h)” value in series [2] is recorded as “A (A: <25% of the tested compound remaining)”. Besides, the “Assay 1 (SGF) (% Remaining @ 1 hours)” value in series [3] was “C (C: >75% of the tested compound remaining)”.
